Measured values reported in the kinase profiling compilation of Christmann-Franck et al. (2016).
Values belong to the compound of their own block, whether it stands above or below them.

Assays:
Test in all cases: Caliper, Mobility shift assay off-chip
TSSK1B (human) = TSSK1B (human) (UniProt Q9BXA7)
MAPK12 (human) = MAPK12 (human) (UniProt P53778)
IKBKB (human) = IKBKB (human) (UniProt O14920)
CDK2 (human) = CDK2 (human) (UniProt P24941)
DYRK1A (human) = DYRK1A (human) (UniProt Q13627)
PRKCA (human) = PRKCA (human) (UniProt P17252)
FGFR3 (human) = FGFR3 (human) (UniProt P22607)
Sequence of FGFR3 (human) (P22607 whole entry, looked up): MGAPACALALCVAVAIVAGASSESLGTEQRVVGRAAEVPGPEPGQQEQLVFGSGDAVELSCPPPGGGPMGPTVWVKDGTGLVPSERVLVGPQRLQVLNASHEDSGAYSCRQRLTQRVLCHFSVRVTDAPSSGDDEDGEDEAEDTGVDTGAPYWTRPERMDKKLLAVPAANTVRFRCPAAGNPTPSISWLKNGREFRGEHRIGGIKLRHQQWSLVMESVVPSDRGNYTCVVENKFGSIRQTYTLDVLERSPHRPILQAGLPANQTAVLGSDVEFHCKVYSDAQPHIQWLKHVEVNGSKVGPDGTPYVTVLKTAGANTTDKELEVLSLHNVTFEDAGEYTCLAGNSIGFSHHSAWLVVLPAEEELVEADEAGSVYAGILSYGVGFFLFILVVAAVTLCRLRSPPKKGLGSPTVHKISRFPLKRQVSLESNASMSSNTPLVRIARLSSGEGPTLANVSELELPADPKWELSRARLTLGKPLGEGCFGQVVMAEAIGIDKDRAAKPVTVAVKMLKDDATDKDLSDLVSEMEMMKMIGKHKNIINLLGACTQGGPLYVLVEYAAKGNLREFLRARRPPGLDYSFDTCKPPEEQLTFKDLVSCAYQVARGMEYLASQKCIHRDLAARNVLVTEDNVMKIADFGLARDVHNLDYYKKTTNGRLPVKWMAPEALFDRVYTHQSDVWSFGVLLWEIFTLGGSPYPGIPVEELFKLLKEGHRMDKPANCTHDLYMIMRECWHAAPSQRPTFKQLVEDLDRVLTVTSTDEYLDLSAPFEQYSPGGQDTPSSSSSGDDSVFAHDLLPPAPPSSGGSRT

LYN (human) = LYN (human) (UniProt P07948)
GSK3B (human) = GSK3B (human) (UniProt P49841)
[1] = tested on: FGFR2 (human), P21802 [N549H]
Sequence of FGFR2 (human), P21802 [N549H] (P21802 whole entry N549H, looked up): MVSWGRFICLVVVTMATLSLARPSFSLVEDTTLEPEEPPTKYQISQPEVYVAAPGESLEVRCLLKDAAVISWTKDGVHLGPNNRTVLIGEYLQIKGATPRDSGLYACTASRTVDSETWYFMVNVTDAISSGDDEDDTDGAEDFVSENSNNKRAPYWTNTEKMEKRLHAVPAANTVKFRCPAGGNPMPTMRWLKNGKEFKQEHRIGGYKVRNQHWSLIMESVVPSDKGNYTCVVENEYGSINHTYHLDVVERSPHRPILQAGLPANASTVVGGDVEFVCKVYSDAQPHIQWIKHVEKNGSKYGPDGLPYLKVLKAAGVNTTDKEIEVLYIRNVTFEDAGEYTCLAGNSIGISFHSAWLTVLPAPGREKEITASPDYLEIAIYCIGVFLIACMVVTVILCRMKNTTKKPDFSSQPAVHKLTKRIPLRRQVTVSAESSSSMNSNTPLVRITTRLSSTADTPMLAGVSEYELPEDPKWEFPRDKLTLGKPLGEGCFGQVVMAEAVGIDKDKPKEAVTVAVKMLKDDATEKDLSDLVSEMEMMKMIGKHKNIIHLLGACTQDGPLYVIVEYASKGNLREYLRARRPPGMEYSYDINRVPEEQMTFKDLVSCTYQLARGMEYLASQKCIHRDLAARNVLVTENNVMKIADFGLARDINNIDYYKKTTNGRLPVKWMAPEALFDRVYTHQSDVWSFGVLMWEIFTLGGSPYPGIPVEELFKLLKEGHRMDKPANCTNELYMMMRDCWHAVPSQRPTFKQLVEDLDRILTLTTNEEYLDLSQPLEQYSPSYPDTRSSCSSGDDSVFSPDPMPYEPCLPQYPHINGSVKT

[2] = tested on: FLT3 (human), P36888 [D835Y]
ABL2 (human) = ABL2 (human) (UniProt P42684)
PRKD3 (human) = PRKD3 (human) (UniProt O94806)
FGFR1 (human) = FGFR1 (human) (UniProt P11362)
PAK2 (human) = PAK2 (human) (UniProt Q13177)
MARK2 (human) = MARK2 (human) (UniProt Q7KZI7)
MAPKAPK3 (human) = MAPKAPK3 (human) (UniProt Q16644)
Sequence of MAPKAPK3 (human) (Q16644 whole entry, looked up): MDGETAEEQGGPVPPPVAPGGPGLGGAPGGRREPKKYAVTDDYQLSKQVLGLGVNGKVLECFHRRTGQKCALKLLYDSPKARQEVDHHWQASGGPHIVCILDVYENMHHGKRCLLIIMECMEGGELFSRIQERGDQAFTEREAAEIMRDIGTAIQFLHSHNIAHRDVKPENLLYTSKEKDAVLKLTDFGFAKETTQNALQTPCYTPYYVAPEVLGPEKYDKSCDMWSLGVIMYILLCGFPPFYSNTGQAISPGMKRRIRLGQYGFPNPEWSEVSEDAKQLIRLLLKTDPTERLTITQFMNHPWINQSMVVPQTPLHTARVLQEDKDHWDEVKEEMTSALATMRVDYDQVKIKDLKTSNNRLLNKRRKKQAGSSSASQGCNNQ

TSSK2 (human) = TSSK2 (human) (UniProt Q96PF2)
PRKCD (human) = PRKCD (human) (UniProt Q05655)
SGK2 (human) = SGK2 (human) (UniProt Q9HBY8)
IGF1R (human) = IGF1R (human) (UniProt P08069)
Sequence of IGF1R (human) (P08069 whole entry, looked up): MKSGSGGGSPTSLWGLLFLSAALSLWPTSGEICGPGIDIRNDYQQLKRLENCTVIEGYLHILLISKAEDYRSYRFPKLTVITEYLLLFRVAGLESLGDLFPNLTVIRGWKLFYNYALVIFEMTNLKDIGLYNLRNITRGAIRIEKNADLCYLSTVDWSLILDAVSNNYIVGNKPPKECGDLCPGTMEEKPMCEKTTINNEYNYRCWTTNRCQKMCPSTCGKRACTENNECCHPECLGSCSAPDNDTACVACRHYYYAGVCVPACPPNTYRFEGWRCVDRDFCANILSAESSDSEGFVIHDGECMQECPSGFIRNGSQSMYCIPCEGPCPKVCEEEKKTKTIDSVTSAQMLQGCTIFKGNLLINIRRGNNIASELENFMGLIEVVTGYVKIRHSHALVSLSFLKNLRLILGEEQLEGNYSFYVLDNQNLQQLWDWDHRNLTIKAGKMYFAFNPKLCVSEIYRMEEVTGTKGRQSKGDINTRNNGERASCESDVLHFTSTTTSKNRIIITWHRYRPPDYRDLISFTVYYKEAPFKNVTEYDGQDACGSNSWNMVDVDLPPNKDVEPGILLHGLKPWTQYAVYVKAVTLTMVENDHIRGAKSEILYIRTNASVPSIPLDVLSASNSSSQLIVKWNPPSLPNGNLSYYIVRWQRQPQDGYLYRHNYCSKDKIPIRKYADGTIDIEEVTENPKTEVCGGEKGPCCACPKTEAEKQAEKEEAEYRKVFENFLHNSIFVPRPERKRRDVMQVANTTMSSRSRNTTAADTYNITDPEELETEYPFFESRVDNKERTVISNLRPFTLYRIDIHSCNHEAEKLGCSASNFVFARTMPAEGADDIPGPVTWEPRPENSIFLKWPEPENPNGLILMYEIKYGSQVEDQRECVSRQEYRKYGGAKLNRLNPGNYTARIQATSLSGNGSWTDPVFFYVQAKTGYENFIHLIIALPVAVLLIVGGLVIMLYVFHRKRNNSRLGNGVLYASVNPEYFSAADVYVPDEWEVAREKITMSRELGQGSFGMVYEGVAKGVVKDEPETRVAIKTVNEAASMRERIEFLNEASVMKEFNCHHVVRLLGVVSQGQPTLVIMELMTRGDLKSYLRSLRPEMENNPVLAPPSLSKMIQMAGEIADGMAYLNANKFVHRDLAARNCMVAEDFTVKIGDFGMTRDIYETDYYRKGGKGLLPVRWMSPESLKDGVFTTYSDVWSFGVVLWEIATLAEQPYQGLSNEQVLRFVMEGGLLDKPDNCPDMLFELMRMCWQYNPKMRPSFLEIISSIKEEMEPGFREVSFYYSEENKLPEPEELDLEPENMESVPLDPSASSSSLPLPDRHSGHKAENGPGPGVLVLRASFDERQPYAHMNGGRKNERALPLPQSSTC

PRKCG (human) = PRKCG (human) (UniProt P05129)
PRKD1 (human) = PRKD1 (human) (UniProt Q15139)
LCK (human) = LCK (human) (UniProt P06239)
MAPK13 (human) = MAPK13 (human) (UniProt O15264)

Sequence of MAPK12 (human) (P53778 whole entry, looked up): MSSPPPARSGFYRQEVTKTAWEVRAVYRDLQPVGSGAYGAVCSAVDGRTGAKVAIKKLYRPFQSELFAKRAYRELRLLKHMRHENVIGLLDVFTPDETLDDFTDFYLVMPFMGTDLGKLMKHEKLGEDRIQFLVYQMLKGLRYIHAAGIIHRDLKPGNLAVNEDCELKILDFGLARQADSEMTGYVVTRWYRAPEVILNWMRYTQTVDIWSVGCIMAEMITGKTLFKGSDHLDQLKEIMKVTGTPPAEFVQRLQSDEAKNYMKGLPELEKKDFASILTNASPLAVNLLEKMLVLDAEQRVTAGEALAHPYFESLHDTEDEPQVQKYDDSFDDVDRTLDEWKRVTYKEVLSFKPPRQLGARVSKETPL
Sequence of TSSK1B (human) (Q9BXA7 whole entry, looked up): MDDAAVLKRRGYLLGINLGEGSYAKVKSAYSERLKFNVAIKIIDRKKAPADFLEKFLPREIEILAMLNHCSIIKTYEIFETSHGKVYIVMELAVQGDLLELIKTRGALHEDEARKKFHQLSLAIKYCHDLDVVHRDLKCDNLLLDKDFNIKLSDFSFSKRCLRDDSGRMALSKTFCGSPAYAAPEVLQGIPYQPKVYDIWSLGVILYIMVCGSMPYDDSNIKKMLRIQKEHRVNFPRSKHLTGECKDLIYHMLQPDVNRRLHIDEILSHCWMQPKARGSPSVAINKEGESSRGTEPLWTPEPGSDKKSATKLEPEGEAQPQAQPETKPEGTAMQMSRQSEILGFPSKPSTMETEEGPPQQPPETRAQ

inhibition (TSSK1B (human); compound 0.1 µM): 19.8%
inhibition (TSSK1B (human); compound 1.0 µM): -1.7%
inhibition (MAPK12 (human); compound 0.1 µM): -6.6%
inhibition (MAPK12 (human); compound 1.0 µM): 0.8%
inhibition (IKBKB (human); compound 0.1 µM): 1.4%
inhibition (IKBKB (human); compound 1.0 µM): -1.2%
inhibition (CDK2 (human); compound 0.1 µM): -6.3%
inhibition (CDK2 (human); compound 1.0 µM): -3.4%
inhibition (DYRK1A (human); compound 0.1 µM): -4.6%
inhibition (DYRK1A (human); compound 1.0 µM): -2.8%
inhibition (PRKCA (human); compound 0.1 µM): 21.9%
inhibition (PRKCA (human); compound 1.0 µM): -3%
inhibition (FGFR3 (human); compound 0.1 µM): 34.5%
inhibition (LYN (human); compound 0.1 µM): -7.4%
inhibition (LYN (human); compound 1.0 µM): 5.9%
inhibition (GSK3B (human); compound 0.1 µM): -3.5%
inhibition (GSK3B (human); compound 1.0 µM): 3%
inhibition ([1]; compound 0.1 µM): 5.5%
inhibition ([1]; compound 1.0 µM): 15.5%
inhibition ([2]; compound 0.1 µM): 2.5%
inhibition ([2]; compound 1.0 µM): 13.3%
inhibition (ABL2 (human); compound 0.1 µM): -5.3%
inhibition (ABL2 (human); compound 1.0 µM): 6.8%
inhibition (PRKD3 (human); compound 0.1 µM): -6.1%
inhibition (PRKD3 (human); compound 1.0 µM): 3.6%
inhibition (FGFR1 (human); compound 0.1 µM): 12.3%
inhibition (FGFR1 (human); compound 1.0 µM): 61.2%
inhibition (PAK2 (human); compound 0.1 µM): -38.4%
inhibition (PAK2 (human); compound 1.0 µM): -0.3%
inhibition (MARK2 (human); compound 0.1 µM): -1.3%
inhibition (MARK2 (human); compound 1.0 µM): 6.5%
inhibition (MAPKAPK3 (human); compound 0.1 µM): 1.8%
inhibition (MAPKAPK3 (human); compound 1.0 µM): -5.4%
inhibition (TSSK2 (human); compound 1.0 µM): -7.1%
inhibition (PRKCD (human); compound 0.1 µM): -36%
inhibition (PRKCD (human); compound 1.0 µM): 2.1%
inhibition (SGK2 (human); compound 0.1 µM): -0.4%
inhibition (SGK2 (human); compound 1.0 µM): -3.6%
inhibition (IGF1R (human); compound 0.1 µM): -23.8%
inhibition (IGF1R (human); compound 1.0 µM): -10%
inhibition (PRKCG (human); compound 0.1 µM): -2%
inhibition (PRKCG (human); compound 1.0 µM): -3.4%
inhibition (PRKD1 (human); compound 0.1 µM): -3.6%
inhibition (PRKD1 (human); compound 1.0 µM): -6.6%
inhibition (LCK (human); compound 0.1 µM): 9.2%
inhibition (LCK (human); compound 1.0 µM): 0.5%
inhibition (MAPK13 (human); compound 0.1 µM): -7.9%
inhibition (MAPK13 (human); compound 1.0 µM): -7.1%
SMILES: Cn1cc(-c2cnc3ccc4ccc(CS(=O)(=O)CCc5ccccn5)cc4c(=O)c3c2)cn1

inhibition (TSSK1B (human); compound 0.1 µM): -2.7%
inhibition (MAPK12 (human); compound 0.1 µM): -3.3%
inhibition (MAPK12 (human); compound 1.0 µM): -11.8%
inhibition (IKBKB (human); compound 0.1 µM): 1.9%
inhibition (CDK2 (human); compound 0.1 µM): 1.9%
inhibition (CDK2 (human); compound 1.0 µM): 1.4%
inhibition (DYRK1A (human); compound 0.1 µM): 2.3%
inhibition (DYRK1A (human); compound 1.0 µM): 2.1%
inhibition (PRKCA (human); compound 0.1 µM): -28%
inhibition (PRKCA (human); compound 1.0 µM): -0.1%
inhibition (FGFR3 (human); compound 0.1 µM): -12.6%
inhibition (LYN (human); compound 0.1 µM): 17.3%
inhibition (LYN (human); compound 1.0 µM): 9.6%
inhibition (GSK3B (human); compound 1.0 µM): 2%
inhibition ([1]; compound 0.1 µM): -2.9%
inhibition ([2]; compound 0.1 µM): -0.3%
inhibition (ABL2 (human); compound 0.1 µM): 3.3%
inhibition (PRKD3 (human); compound 0.1 µM): -11.5%
inhibition (PRKD3 (human); compound 1.0 µM): -4.4%
inhibition (PAK2 (human); compound 0.1 µM): -7.9%
inhibition (PAK2 (human); compound 1.0 µM): 0.9%
inhibition (MARK2 (human); compound 0.1 µM): -12.6%
inhibition (MARK2 (human); compound 1.0 µM): 2.4%
inhibition (MAPKAPK3 (human); compound 0.1 µM): -2.7%
inhibition (TSSK2 (human); compound 0.1 µM): 0.7%
inhibition (PRKCD (human); compound 0.1 µM): -38.2%
inhibition (PRKCD (human); compound 1.0 µM): -8.2%
inhibition (SGK2 (human); compound 0.1 µM): -9%
inhibition (SGK2 (human); compound 1.0 µM): -11.8%
inhibition (IGF1R (human); compound 0.1 µM): 4.9%
inhibition (IGF1R (human); compound 1.0 µM): -8.3%
inhibition (PRKCG (human); compound 0.1 µM): 6.2%
inhibition (PRKCG (human); compound 1.0 µM): 2.7%
inhibition (PRKD1 (human); compound 0.1 µM): -8.3%
inhibition (PRKD1 (human); compound 1.0 µM): -1.9%
inhibition (LCK (human); compound 0.1 µM): 18.4%
inhibition (LCK (human); compound 1.0 µM): -1.2%
inhibition (MAPK13 (human); compound 0.1 µM): -4.9%
SMILES: Cn1cc(-c2cnc3ccc4ccc(CS(=O)(=O)NCC5CCCCN5)cc4c(=O)c3c2)cn1 (configuration not stated)

inhibition (TSSK1B (human); compound 0.1 µM): -0.9%
inhibition (TSSK1B (human); compound 1.0 µM): 1%
inhibition (MAPK12 (human); compound 0.1 µM): -5.4%
inhibition (MAPK12 (human); compound 1.0 µM): 2.9%
inhibition (IKBKB (human); compound 0.1 µM): -12%
inhibition (IKBKB (human); compound 1.0 µM): 4.2%
inhibition (CDK2 (human); compound 0.1 µM): 1.2%
inhibition (CDK2 (human); compound 1.0 µM): -3.9%
inhibition (DYRK1A (human); compound 0.1 µM): 6.2%
inhibition (DYRK1A (human); compound 1.0 µM): 32.9%
inhibition (PRKCA (human); compound 0.1 µM): 3.1%
inhibition (FGFR3 (human); compound 0.1 µM): 41.1%
inhibition (FGFR3 (human); compound 1.0 µM): 57.9%
inhibition (LYN (human); compound 0.1 µM): -8.7%
inhibition (LYN (human); compound 1.0 µM): -2.3%
inhibition (GSK3B (human); compound 0.1 µM): -2.7%
inhibition (GSK3B (human); compound 1.0 µM): 9.3%
inhibition ([1]; compound 0.1 µM): 15.5%
inhibition ([1]; compound 1.0 µM): 40.5%
inhibition ([2]; compound 0.1 µM): 19.1%
inhibition ([2]; compound 1.0 µM): 73.7%
inhibition (PRKD3 (human); compound 0.1 µM): -8.8%
inhibition (PRKD3 (human); compound 1.0 µM): -1.8%
inhibition (PAK2 (human); compound 0.1 µM): 1.7%
inhibition (PAK2 (human); compound 1.0 µM): 0.8%
inhibition (MAPKAPK3 (human); compound 0.1 µM): 5.4%
inhibition (MAPKAPK3 (human); compound 1.0 µM): 5.7%
inhibition (TSSK2 (human); compound 0.1 µM): -37%
inhibition (TSSK2 (human); compound 1.0 µM): 10.5%
inhibition (PRKCD (human); compound 0.1 µM): 5.1%
inhibition (SGK2 (human); compound 0.1 µM): -0.9%
inhibition (SGK2 (human); compound 1.0 µM): 23.1%
inhibition (IGF1R (human); compound 0.1 µM): -3.7%
inhibition (IGF1R (human); compound 1.0 µM): 1.8%
inhibition (PRKCG (human); compound 0.1 µM): -1.4%
inhibition (PRKD1 (human); compound 0.1 µM): -5.2%
inhibition (PRKD1 (human); compound 1.0 µM): 0.2%
inhibition (LCK (human); compound 0.1 µM): 2.4%
inhibition (LCK (human); compound 1.0 µM): -1.7%
inhibition (MAPK13 (human); compound 0.1 µM): -3.2%
inhibition (MAPK13 (human); compound 1.0 µM): -9.3%
SMILES: Cn1cc(-c2cnc3ccc4ccc(CS(N)(=O)=O)cc4c(=O)c3c2)cn1
